In patent US12115232B2, “Preparation for magnetic resonance diagnostics for oncological diseases, comprising deuterated 3-O-methylglucose, and diagnostic method using said preparation” (SOLVEX LIMITED LIABILITY COMPANY, priority 2017, dated 2024):

Legend:
breast carcinoma 4T1 = system: breast carcinoma 4T1
Protocol: In the examples below, the MRI scanner Bruker BioSpec BC70/30 USR with the constant field of 7.05 T, equipped with a surface transmitting-and-receiving coil with a diameter of 3 cm and a scan depth of ca. 1 cm was used.
To register deuterium image the FLASH (Fast low angle shot) pulse sequence was used.
For experiments with the broadband excitation the following settings were used: the excitation frequency was determined by ^2H NMR spectrum and was sfo1≈46.1745 MHz, a rectangular excitation pulse with a width of 1300 Hz and a power of 36 dB, the flip angle FA=30°, the repetition time TR=11.8 MS, echo time TE=4.4 msec, a scan area of 10 cm×10 cm, scan matrix, 50×50, slice thickness 3 cm, bandwidth of 12500 Hz, total scan time 10 minutes (1030 averages).
In this example, experiments were conducted on mice Balb/c inoculated with breast carcinoma 4T1 (injection of 5×10^5 cells/60 μl under the left front paw for 10 days before experiment) and in healthy Balb/c mice.
A solution of 20-72 mg of 3-O-CD3-glucose was administered to an animal weighing 20 g was injected intraperitoneally, intravenously or via gavage (intraperitoneal: 0.5 ml of a saline solution; intravenous: 0.2 ml of water; oral: 0.25 ml of a saline solution). After injection, the animal was kept in a separate cage with free access to food and water within specified time. For imaging the animal was immobilized with isoflurane. The surface transmitting-and-receiving coil was fixed on the body of the mouse from the dorsal side in the thoracic region.

tumor = test: Preliminary 2H MRI tumor visualization experiments with glucose derivatives; assay type: in vivo
Description: The authors of this invention have studied various derivatives of glucose as a potential diagnostic agent. It was discovered that not all glucose derivatives can be used for the diagnostics of oncological diseases through ^2H MRI or ^2H NMR.

| Compound | accumulation in tumor by 2H MRI after intravenous injection (breast carcinoma 4T1; 20 mg intravenous, 50 minutes, mouse no. 3 (FIG. 9)) | location of agent by 2H MRI after oral administration, late (breast carcinoma 4T1; 70 mg oral, 100 min (text: 115 min), mouse no. 4 (FIG. 10)) | accumulation in tumor visualized by 2H MRI (breast carcinoma 4T1; 72 mg intraperitoneal, 20-320 min after administration, mouse no. 2 (FIGS. 5-8)) | 2H MRI signal in control mouse without tumors (breast carcinoma 4T1; 72 mg intraperitoneal, 40 minutes after administration, mouse no. 1) | valid range of the diagnostic agent doses (breast carcinoma 4T1; mouse, FIGS. 5-9) | tumor visualization by 2H MRI (tumor) |
| --- | --- | --- | --- | --- | --- | --- |
| [2H]C([2H])([2H])O[C@H]1[C@H](O)[C@@H](CO)OC(O)[C@@H]1O (stereo partly drawn) [3-O-CD3-glucose] | accumulation of 3-O-CD3-glucose in the tumor | accumulated in tumors | accumulated in the tumor in sufficient concentration to be visualized | missing an area with a strong signal of deuterium | 1-3.5 g per 1 kg of animal weight | – |
| OCC1OC(O)C(O)C(O)C1O (stereo not drawn) [6,6-D2-glucose] | – | – | – | – | – | not possible to accurately visualize the tumor |
